Columns and labels:
CXCR3 = CXCR3 (Macaca fascicularis, UniProt A0A2K5UV19); assay: functional cellular assay measuring calcium flux in CXCR3 transfected cells (block of CXCR3/IP-10 interaction); format: cell-based; settings: IP-10 induced intracellular calcium flux; Cyno-CHO cells stably expressing recombinant CXCR3 and G-alpha-16
Procedure, shortened: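 Cyno-CHO cells stably co-expressing recombinant CXCR3 and G-alpha-16, loaded with Ca-4 dye (HBSS, 10 mM HEPES pH 7.4, 2 mM probenecid) for 1 h at 37 °C. Compound (10 microM final) preincubated 15 min at room temperature, then IP-10 added at EC80. Intracellular calcium flux read by fluorescence (ex 480/em 540 nm).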

[1] = test system: LDL receptor knockout model; settings: dosed prophylactically; cited from earlier work

Sequence of CXCR3 (A0A2K5UV19 entry or part of it): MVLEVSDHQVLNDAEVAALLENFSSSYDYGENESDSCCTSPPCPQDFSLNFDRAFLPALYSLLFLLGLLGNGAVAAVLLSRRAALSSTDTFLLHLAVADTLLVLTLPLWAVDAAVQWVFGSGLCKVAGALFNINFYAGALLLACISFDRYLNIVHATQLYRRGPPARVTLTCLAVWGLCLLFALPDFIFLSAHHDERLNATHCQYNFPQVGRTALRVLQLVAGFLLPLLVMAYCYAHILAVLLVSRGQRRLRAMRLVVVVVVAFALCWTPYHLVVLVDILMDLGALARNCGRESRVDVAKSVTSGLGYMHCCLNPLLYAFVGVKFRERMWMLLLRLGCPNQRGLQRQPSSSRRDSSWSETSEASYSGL

Structure (SMILES)	IC50 (CXCR3)	atherosclerotic lesion formation [1]
Cc1cc(C)n(CC(=O)N2CCN(c3ccccc3C(=O)Nc3cccc(Cl)c3)CC2)n1 [N-(3-Chloro-phenyl)-2-{4-[2-(3,5-dimethyl-pyrazol-1-yl)-acetyl]-piperazin-1-yl}-benzamide]	3.3 nM	
Cc1cc(C)n(CC(=O)N2CCN(c3ccccc3C(=O)Nc3cccc(C#N)c3)CC2)n1 [N-(3-Cyano-phenyl)-2-{4-[2-(3,5-dimethyl-pyrazol-1-yl)-acetyl]-piperazin-1-yl}-benzamide]	4.5 nM	
Cc1cc(C)n(CC(=O)N2CCN(c3ccccc3C(=O)Nc3cc(C4CCCCC4)no3)CC2)n1 [N-(3-Cyclohexyl-isoxazol-5-yl)-2-{4-[2-(3,5-dimethyl-pyrazol-1-yl)-acetyl]-piperazin-1-yl}-benzamide]	8.3 nM	
Cc1cc(C)n(CC(=O)N2CCN(c3ccccc3C(=O)Nc3cc(C(C)(C)C)ns3)CC2)n1 [N-(3-tert-Butyl-isothiazol-5-yl)-2-{4-[2-(3,5-dimethyl-pyrazol-1-yl)-acetyl]-piperazin-1-yl}-benzamide]	10 nM	
Cc1cc(C)n(CC(=O)N2CCN(c3ccccc3C(=O)Nc3cc(C(C)(C)C)no3)CC2)n1 [N-(3-tert-Butyl-isoxazol-5-yl)-2-{4-[2-(3,5-dimethyl-pyrazol-1-yl)-acetyl]-piperazin-1-yl}-benzamide]	8.9 nM	
Cc1cc(C)n(CC(=O)N2CCN(c3ccccc3C(=O)Nc3nc4c(Cl)cccc4s3)CC2)n1 [N-(4-Chloro-benzothiazol-2-yl)-2-{4-[2-(3,5-dimethyl-pyrazol-1-yl)-acetyl]-piperazin-1-yl}-benzamide]	13 nM	
CS(=O)(=O)c1ccc(NC(=O)c2ccccc2N2CCN(C(=O)Cn3ccc4cccnc43)CC2)cc1 [N-(4-Methanesulfonyl-phenyl)-2-[4-(2-pyrrolo[2,3-b]pyridin-1-yl-acetyl)-piperazin-1-yl]-benzamide]	7.4 nM	
Cc1cc(C)n(CC(=O)N2CCN(c3ccccc3C(=O)Nc3nc(C(C)(C)C)c(C#N)s3)CC2)n1 [N-(4-tert-Butyl-5-cyano-thiazol-2-yl)-2-{4-[2-(3,5-dimethyl-pyrazol-1-yl)-acetyl]-piperazin-1-yl}-benzamide]	18.5 nM	
Cc1cc(C)n(CC(=O)N2CCN(c3ccccc3C(=O)Nc3nc(C(C)(C)C)cs3)CC2)n1 [N-(4-tert-Butyl-thiazol-2-yl)-2-{4-[2-(3,5-dimethyl-pyrazol-1-yl)-acetyl]-piperazin-1-yl}-benzamide]	15 nM	
Cc1cc(C)n(CC(=O)N2CCC(c3ccc(Cl)cc3NC(=O)c3ccccc3)CC2)n1 [N-(5-Chloro-2-{1-[2-(3,5-dimethyl-pyrazol-1-yl)-acetyl]-piperidin-4-yl}-phenyl)-benzamide]	18.5 nM	
Cc1cc(C)n(CC(=O)N2CCN(c3ncc(Cl)cc3NC(=O)c3cccc(C(F)(F)F)c3)CC2)n1 [N-(5-Chloro-2-{4-[2-(3,5-dimethyl-pyrazol-1-yl)-acetyl]-piperazin-1-yl}-pyridin-3-yl)-3-trifluoromethyl-benzamide]	10.6 nM	
Cc1cc(C)n(CC(=O)N2CCN(c3ncc(Cl)cc3NC(=O)c3ccc(S(C)(=O)=O)cc3)CC2)n1 [N-(5-Chloro-2-{4-[2-(3,5-dimethyl-pyrazol-1-yl)-acetyl]-piperazin-1-yl}-pyridin-3-yl)-4-methanesulfonyl-benzamide]	23 nM	
Cc1cc(C)n(CC(=O)N2CCN(c3ccccc3C(=O)Nc3nc4cc(Cl)ccc4s3)CC2)n1 [N-(5-Chloro-benzothiazol-2-yl)-2-{4-[2-(3,5-dimethyl-pyrazol-1-yl)-acetyl]-piperazin-1-yl}-benzamide]	17 nM	
Cc1cc(C)n(CC(=O)N2CCN(c3ccccc3C(=O)Nc3cncc(Cl)c3)CC2)n1 [N-(5-Chloro-pyridin-3-yl)-2-{4-[2-(3,5-dimethyl-pyrazol-1-yl)-acetyl]-piperazin-1-yl}-benzamide]	7.6 nM	
O=C(Nc1cncc(F)c1)c1ccccc1N1CCN(C(=O)Cn2ccc3ccncc32)CC1 [N-(5-Fluoro-pyridin-3-yl)-2-[4-(2-pyrrolo[2,3-c]pyridin-1-yl-acetyl)-piperazin-1-yl]-benzamide]	1.3 nM	
CN1CCc2nc(NC(=O)c3ccccc3N3CCN(C(=O)CN4Cc5ccccc5C4=O)CC3)sc2C1 [N-(5-Methyl-4,5,6,7-tetrahydro-thiazolo[5,4-c]pyridin-2-yl)-2-{4-[2-(1-oxo-1,3-dihydro-isoindol-2-yl)-acetyl]-piperazin-1-yl}-benzamide]	2.9 nM	
Cc1cc(C)n(CC(=O)N2CCN(c3ccccc3C(=O)Nc3cc(C(C)(C)C)n[nH]3)CC2)n1 [N-(5-tert-Butyl-2H-pyrazol-3-yl)-2-{4-[2-(3,5-dimethyl-pyrazol-1-yl)-acetyl]-piperazin-1-yl}-benzamide]	4.8 nM	
Cc1cc(C)n(CC(=O)N2CCN(c3ccccc3C(=O)Nc3nc(C)c(C(C)(C)C)s3)CC2)n1 [N-(5-tert-Butyl-4-methyl-thiazol-2-yl)-2-{4-[2-(3,5-dimethyl-pyrazol-1-yl)-acetyl]-piperazin-1-yl}-benzamide]	11 nM	
Cc1cc(C)n(CC(=O)N2CCN(c3ccccc3C(=O)Nc3nnc(C(C)(C)C)s3)CC2)n1 [N-(5-tert-Butyl-[1,3,4]thiadiazol-2-yl)-2-{4-[2-(3,5-dimethyl-pyrazol-1-yl)-acetyl]-piperazin-1-yl}-benzamide]	9.7 nM	

Structure (SMILES)	IC50 (CXCR3)	atherosclerotic lesion formation [1]
Cc1cc(C)n(CC(=O)N2CCN(c3ccccc3C(=O)Nc3nc4c(s3)COCC4)CC2)n1 [N-(6,7-Dihydro-4H-pyrano[4,3-d]thiazol-2-yl)-2-{4-[2-(3,5-dimethyl-pyrazol-1-yl)-acetyl]-piperazin-1-yl}-benzamide]	8.6 nM	
CC(=O)Nc1ccc(NC(=O)c2ccccc2N2CCN(C(=O)Cn3nc(C)cc3C)CC2)cn1 [N-(6-Acetylamino-pyridin-3-yl)-2-{4-[2-(3,5-dimethyl-pyrazol-1-yl)-acetyl]-piperazin-1-yl}-benzamide]	10.2 nM	
Cc1cc(C)n(CC(=O)N2CCN(c3ccccc3C(=O)Nc3ccc(Br)nc3)CC2)n1 [N-(6-Bromo-pyridin-3-yl)-2-{4-[2-(3,5-dimethyl-pyrazol-1-yl)-acetyl]-piperazin-1-yl}-benzamide]	8.5 nM	
Cc1cc(C)n(CC(=O)N2CCN(c3ccccc3C(=O)Nc3ccc(Cl)nc3)CC2)n1 [N-(6-Chloro-pyridin-3-yl)-2-{4-[2-(3,5-dimethyl-pyrazol-1-yl)-acetyl]-piperazin-1-yl}-benzamide]	7.2 nM	
N#Cc1ccc(NC(=O)c2ccccc2N2CCN(C(=O)Cn3ccc4cccnc43)CC2)cn1 [N-(6-Cyano-pyridin-3-yl)-2-[4-(2-pyrrolo[2,3-b]pyridin-1-yl-acetyl)-piperazin-1-yl]-benzamide]	6.3 nM	
Cc1cc(C)n(CC(=O)N2CCN(c3ccccc3C(=O)Nc3ccc(C#N)nc3)CC2)n1 [N-(6-Cyano-pyridin-3-yl)-2-{4-[2-(3,5-dimethyl-pyrazol-1-yl)-acetyl]-piperazin-1-yl}-benzamide]	4.2 nM	
COc1ccc(NC(=O)c2ccccc2N2CCN(C(=O)Cn3ccc4cccnc43)CC2)cn1 [N-(6-Methoxy-pyridin-3-yl)-2-[4-(2-pyrrolo[2,3-b]pyridin-1-yl-acetyl)-piperazin-1-yl]-benzamide]	5.7 nM	
Cc1ccc(NC(=O)c2ccccc2N2CCN(C(=O)Cn3ccc4cccnc43)CC2)cn1 [N-(6-Methyl-pyridin-3-yl)-2-[4-(2-pyrrolo[2,3-b]pyridin-1-yl-acetyl)-piperazin-1-yl]-benzamide]	6.8 nM	
Cc1cc(C)n(CC(=O)N2CCN(c3ccccc3C(=O)Nc3nc4ccccc4s3)CC2)n1 [N-Benzothiazol-2-yl-2-{4-[2-(3,5-dimethyl-pyrazol-1-yl)-acetyl]-piperazin-1-yl}-benzamide]	5.9 nM	
O=C(Nc1ccccc1)c1ccccc1N1CCN(C(=O)Cn2ccc3cccnc32)CC1 [N-Phenyl-2-[4-(2-pyrrolo[2,3-b]pyridin-1-yl-acetyl)-piperazin-1-yl]-benzamide]	3.4 nM	
O=C(Nc1cccnc1)c1ccccc1N1CCN(C(=O)Cn2ccc3cccnc32)CC1 [N-Pyridin-3-yl-2-[4-(2-pyrrolo[2,3-b]pyridin-1-yl-acetyl)-piperazin-1-yl]-benzamide]	4.6 nM	
O=C(Nc1ccncc1)c1ccccc1N1CCN(C(=O)Cn2ccc3cccnc32)CC1 [N-Pyridin-4-yl-2-[4-(2-pyrrolo[2,3-b]pyridin-1-yl-acetyl)-piperazin-1-yl]-benzamide]	4.9 nM	
O=C(Nc1ccncc1)c1ccccc1N1CCN(C(=O)Cc2cccc3cccnc23)CC1 [N-Pyridin-4-yl-2-[4-(2-quinolin-8-yl-acetyl)-piperazin-1-yl]-benzamide]	14 nM	
O=C(Nc1ccncc1)c1ccccc1N1CCN(C(=O)CN2C(=O)c3ccccc3S2(=O)=O)CC1 [N-Pyridin-4-yl-2-{4-[2-(1,1,3-trioxo-1,3-dihydro-1l6-benzo[d]isothiazol-2-yl)-acetyl]-piperazin-1-yl}-benzamide]	6.6 nM	
Cc1nn(C)c(C)c1CC(=O)N1CCN(c2ccccc2C(=O)Nc2ccncc2)CC1 [N-Pyridin-4-yl-2-{4-[2-(1,3,5-trimethyl-1H-pyrazol-4-yl)-acetyl]-piperazin-1-yl}-benzamide]	19.5 nM	
Cc1cc(C)n(CC(=O)N2CCN(c3ccccc3C(=O)Nc3cc(CC(C)(C)C)no3)CC2)n1 [N-[3-(2,2-Dimethyl-propyl)-isoxazol-5-yl]-2-{4-[2-(3,5-dimethyl-pyrazol-1-yl)-acetyl]-piperazin-1-yl}-benzamide]	9.5 nM	
O=C(Nc1cc(Cl)cnc1N1CCN(C(=O)Cn2ccc3cccnc32)CC1)c1cccc(C(F)(F)F)c1 [N-{5-Chloro-2-[4-(2-pyrrolo[2,3-b]pyridin-1-yl-acetyl)-piperazin-1-yl]-pyridin-3-yl}-3-trifluoromethyl-benzamide]	8.9 nM	
CCOc1ccc(-n2c(C(C)N(Cc3cccnc3)C(=O)Cc3ccc(F)c(C(F)(F)F)c3)nc3ncccc3c2=O)cc1 (stereo not shown) [NBI-74330]		significantly attenuated atherosclerotic lesion formation
